# Data as given in US8044057B2, “Methods for suppressing an immune response or treating a proliferative disorder” (The United States of America as represented by the …, priority 2003, dated 2011).
# System: AKT
# Experiment: Western blot of phospho-Akt S473 in A549 cells
# Format: cell-based, human
# Description: A549 cells were treated without or with 100 mcM LY303511, 200 ng/ml rapamycin, or 50 nM wortmannin in serum free media for 1 hour before addition of E. coli lipopolysaccharide (LPS), […] and interferon (IFN)-γ, 100 U/ml (LPS/IFN-γ or “L/I”). Cells were homogenized and the indicated proteins (see Table 1) were detected by Western blot. Western blots are from the same experiment, and representative of three experiments.
# Measurement of protein phosphorylation: A549 cells were incubated in serum-free medium without or with inhibitors for 1 hour, as indicated, before incubation for 30 minutes with a mixture of LPS, 100 μg/ml (Sigma; St. Louis, Mo.) and IFN-γ, 100 U/ml (Roche; Nutley, N.J.). PASM cells were incubated in serum-free medium without or with inhibitors for 24 h as indicated, before incubation for 30 min with 10% FBS. A549 or PASM cells were washed once with cold PBS and incubated for 15 minutes on ice ih lysis buffer (20 mM Tris pH 8.0, 1% Nonidet P-40, 1 mM EDTA, 5 mM benzamidine, aprotinin, 10 μg/ml, leupeptin, 10 μg/ml, trypsin soybean inhibitor, 1 mM PMSF, 50 mM sodium fluoride, 100 μM sodium orthovanadate, and 1: 100 Sigma phosphatase inhibitor set I containing cantharidin, microcystin LR and bromotetramizole). […] Integrated band densities were quantified using Scion Image beta 3b software.
smiles,measurement,setting,value
"O=c1cc(N2CCNCC2)oc2c(-c3ccccc3)cccc12 [LY303511, 2-(4-piperazinyl)-8-phenyl-4H-1-benzopyran-4-one]",inhibition of phosphorylation of Akt,even at 100 mcM,does not inhibit phosphorylation of Akt
same,phosphorylation of AKT (S473),"inhibitors 1 hour before LPS/IFN-γ, Western blot",increase phosphorylation of AKT
